Reference: ChEMBL document CHEMBL1149262, “Monoamine transporter binding, locomotor activity, and drug discrimination properties of 3-(4-substituted-phenyl)tropane-2-carboxylic acid methyl ester isomers” (J Med Chem, 2004)
Activity calls are given as the source filed them. No cut-off for these calls is given here.

Tests used:
Rattus norvegicus [1] = assay: Cocaine discrimination in ip dosed CD Albino rat; format: functional
Rattus norvegicus [2] = assay: Drug discrimination effect in CD Albino rat assessed as percent of rat choosing cocaine lever at 1 mg/kg, ip; format: functional; settings: route intraperitoneal
Rattus norvegicus [3] = assay: Drug discrimination effect in CD Albino rat assessed as percent of rat choosing cocaine lever at 1.7 mg/kg, ip; format: functional; settings: route intraperitoneal
Rattus norvegicus [4] = assay: Drug discrimination effect in CD Albino rat assessed as percent of rat choosing cocaine lever at 3 mg/kg, ip; format: functional; settings: route intraperitoneal
Rattus norvegicus [5] = assay: Drug discrimination effect in CD Albino rat assessed as percent of rat choosing cocaine lever at 5.6 mg/kg, ip; format: functional; settings: route intraperitoneal
Rattus norvegicus [6] = assay: Drug discrimination effect in CD Albino rat assessed as percent of rat choosing cocaine lever at 10 mg/kg, ip; format: functional; settings: route intraperitoneal
Rattus norvegicus [7] = assay: Drug discrimination effect in CD Albino rat assessed as percent of rat choosing cocaine lever at 17 mg/kg, ip; format: functional; settings: route intraperitoneal
Rattus norvegicus [8] = assay: Drug discrimination effect in CD Albino rat assessed as percent of rat choosing cocaine lever at 30 mg/kg, ip; format: functional; settings: route intraperitoneal
Mus musculus [9] = assay: Activity in CD1 mouse assessed as slight or intermittent hyperactivity at 10 mg/kg, ip after 4 hrs; format: functional, organism-based; parameters: dose 10 mg/kg
Mus musculus [10] = assay: Activity in CD1 mouse assessed as hyperactivity at 100 mg/kg, ip after 4 hrs; format: functional, organism-based; parameters: dose 100 mg/kg
Mus musculus [11] = assay: Activity in CD1 mouse assessed as stereotypy at 100 mg/kg, ip after 4 hrs; format: functional, organism-based; parameters: dose 100 mg/kg
Mus musculus [12] = assay: Activity in CD1 mouse assessed as circling at 100 mg/kg, ip after 4 hrs; format: functional, organism-based; parameters: dose 100 mg/kg
[13] = target: Sodium-dependent dopamine transporter (Homo sapiens, UniProt Q01959); assay: Displacement of [3H]WIN-35428 from DAT
[14] = target: Sodium-dependent noradrenaline transporter (Homo sapiens, UniProt P23975); assay: Displacement of [3H]nisoxetine from NET
Mus musculus [15] = assay: Locomotor activity in ip dosed CD1 mouse in peak hour; format: functional
Mus musculus [16] = assay: Locomotor activity in CD1 mouse assessed as stimulation at 3 mg/kg, ip after 1 hr relative to control; format: functional; settings: route intraperitoneal
Mus musculus [17] = assay: Locomotor activity in CD1 mouse assessed as stimulation at 3 mg/kg, ip after 2 hrs relative to control; format: functional; settings: route intraperitoneal
Mus musculus [18] = assay: Locomotor activity in CD1 mouse assessed as stimulation at 3 mg/kg, ip after 3 hrs relative to control; format: functional; settings: route intraperitoneal
Mus musculus [19] = assay: Locomotor activity in CD1 mouse assessed as stimulation at 3 mg/kg, ip after 4 hrs relative to control; format: functional; settings: route intraperitoneal
Mus musculus [20] = assay: Locomotor activity in CD1 mouse assessed as stimulation at 10 mg/kg, ip after 1 hr relative to control; format: functional; settings: route intraperitoneal
Mus musculus [21] = assay: Locomotor activity in CD1 mouse assessed as stimulation at 10 mg/kg, ip after 2 hrs relative to control; format: functional; settings: route intraperitoneal
Mus musculus [22] = assay: Locomotor activity in CD1 mouse assessed as stimulation at 10 mg/kg, ip after 3 hrs relative to control; format: functional; settings: route intraperitoneal
Mus musculus [23] = assay: Locomotor activity in CD1 mouse assessed as stimulation at 10 mg/kg, ip after 4 hrs relative to control; format: functional; settings: route intraperitoneal
Mus musculus [24] = assay: Locomotor activity in CD1 mouse assessed as stimulation at 30 mg/kg, ip after 1 hr relative to control; format: functional; settings: route intraperitoneal
Mus musculus [25] = assay: Locomotor activity in CD1 mouse assessed as stimulation at 30 mg/kg, ip after 2 hrs relative to control; format: functional; settings: route intraperitoneal
Mus musculus [26] = assay: Locomotor activity in CD1 mouse assessed as stimulation at 30 mg/kg, ip after 3 hrs relative to control; format: functional; settings: route intraperitoneal
Mus musculus [27] = assay: Locomotor activity in CD1 mouse assessed as stimulation at 30 mg/kg, ip after 4 hrs relative to control; format: functional; settings: route intraperitoneal
Mus musculus [28] = assay: Locomotor activity in CD1 mouse assessed as stimulation at 100 mg/kg, ip after 1 hr relative to control; format: functional; settings: route intraperitoneal
Mus musculus [29] = assay: Locomotor activity in CD1 mouse assessed as stimulation at 100 mg/kg, ip after 2 hrs relative to control; format: functional; settings: route intraperitoneal
Mus musculus [30] = assay: Locomotor activity in CD1 mouse assessed as stimulation at 100 mg/kg, ip after 3 hrs relative to control; format: functional; settings: route intraperitoneal
Mus musculus [31] = assay: Locomotor activity in CD1 mouse assessed as stimulation at 100 mg/kg, ip after 4 hrs relative to control; format: functional; settings: route intraperitoneal
Mus musculus [32] = assay: Locomotor activity in CD1 mouse assessed as stimulation at 1 mg/kg, ip after 1 hr relative to control; format: functional; settings: route intraperitoneal
Mus musculus [33] = assay: Locomotor activity in CD1 mouse assessed as stimulation at 1 mg/kg, ip after 2 hrs relative to control; format: functional; settings: route intraperitoneal
Mus musculus [34] = assay: Locomotor activity in CD1 mouse assessed as stimulation at 1 mg/kg, ip after 3 hrs relative to control; format: functional; settings: route intraperitoneal
Mus musculus [35] = assay: Locomotor activity in CD1 mouse assessed as stimulation at 1 mg/kg, ip after 4 hrs relative to control; format: functional; settings: route intraperitoneal
Mus musculus [36] = assay: Activity in CD1 mouse assessed as hind limb splay at 100 mg/kg, ip after 4 hrs; format: functional, organism-based; parameters: dose 100 mg/kg; settings: Hindlimb
Mus musculus [37] = assay: Activity in CD1 mouse assessed as death at 100 mg/kg, ip after 4 hrs; format: functional, organism-based; parameters: dose 100 mg/kg
Mus musculus [38] = assay: Activity in CD1 mouse assessed as convulsions at 100 mg/kg, ip after 4 hrs; format: functional, organism-based; parameters: dose 100 mg/kg
Mus musculus [39] = assay: Activity in CD1 mouse assessed as ptosis at 100 mg/kg, ip after 4 hrs; format: functional, organism-based; parameters: dose 100 mg/kg
Mus musculus [40] = assay: Activity in CD1 mouse assessed as flattened body posture at 100 mg/kg, ip after 4 hrs; format: functional, organism-based; parameters: dose 100 mg/kg
Mus musculus [41] = assay: Locomotor activity in CD1 mouse assessed as stimulation at 0.3 mg/kg, ip after 1 hr relative to control; format: functional; settings: route intraperitoneal
Mus musculus [42] = assay: Locomotor activity in CD1 mouse assessed as stimulation at 0.3 mg/kg, ip after 2 hrs relative to control; format: functional; settings: route intraperitoneal
Mus musculus [43] = assay: Locomotor activity in CD1 mouse assessed as stimulation at 0.3 mg/kg, ip after 3 hrs relative to control; format: functional; settings: route intraperitoneal
Mus musculus [44] = assay: Locomotor activity in CD1 mouse assessed as stimulation at 0.3 mg/kg, ip after 4 hrs relative to control; format: functional; settings: route intraperitoneal
Rattus norvegicus [45] = assay: Drug discrimination effect in CD Albino rat assessed as percent of rat choosing cocaine lever at 0.17 mg/kg, ip; format: functional; settings: route intraperitoneal
Rattus norvegicus [46] = assay: Drug discrimination effect in CD Albino rat assessed as percent of rat choosing cocaine lever at 0.3 mg/kg, ip; format: functional; settings: route intraperitoneal
Rattus norvegicus [47] = assay: Drug discrimination effect in CD Albino rat assessed as percent of rat choosing cocaine lever at 0.56 mg/kg, ip; format: functional; settings: route intraperitoneal
Mus musculus [48] = assay: Activity in CD1 mouse assessed as slight or intermittent stereotypy at 1 mg/kg, ip after 4 hrs; format: functional, organism-based; parameters: dose 1 mg/kg
Mus musculus [49] = assay: Activity in CD1 mouse assessed as slight or intermittent hyperactivity at 1 mg/kg, ip after 4 hrs; format: functional, organism-based; parameters: dose 1 mg/kg
Mus musculus [50] = assay: Activity in CD1 mouse assessed as hyperactivity at 10 mg/kg, ip after 4 hrs; format: functional, organism-based; parameters: dose 10 mg/kg
Mus musculus [51] = assay: Activity in CD1 mouse assessed as stereotypy at 10 mg/kg, ip after 4 hrs; format: functional, organism-based; parameters: dose 10 mg/kg
Mus musculus [52] = assay: Activity in CD1 mouse assessed as straub tail at 100 mg/kg, ip after 4 hrs; format: functional, organism-based; parameters: dose 100 mg/kg
[53] = target: Sodium-dependent serotonin transporter (Homo sapiens, UniProt P31645)
Chain of Sodium-dependent serotonin transporter (P31645 whole entry): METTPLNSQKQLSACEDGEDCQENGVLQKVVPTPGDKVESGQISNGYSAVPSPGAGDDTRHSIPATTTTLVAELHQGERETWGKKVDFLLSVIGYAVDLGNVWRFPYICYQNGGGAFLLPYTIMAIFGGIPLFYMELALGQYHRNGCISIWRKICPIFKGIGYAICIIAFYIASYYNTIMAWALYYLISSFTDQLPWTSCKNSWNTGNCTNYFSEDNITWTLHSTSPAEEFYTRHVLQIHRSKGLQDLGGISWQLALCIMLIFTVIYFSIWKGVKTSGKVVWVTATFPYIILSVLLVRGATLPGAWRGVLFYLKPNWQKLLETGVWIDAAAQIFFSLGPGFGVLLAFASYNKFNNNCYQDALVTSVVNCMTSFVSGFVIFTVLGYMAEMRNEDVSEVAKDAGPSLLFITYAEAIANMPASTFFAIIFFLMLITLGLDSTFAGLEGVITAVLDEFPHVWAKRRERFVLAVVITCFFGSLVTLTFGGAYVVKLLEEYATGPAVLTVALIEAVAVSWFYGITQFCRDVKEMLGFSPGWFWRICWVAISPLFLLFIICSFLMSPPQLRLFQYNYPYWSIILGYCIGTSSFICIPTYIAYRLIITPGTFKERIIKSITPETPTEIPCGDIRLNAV
Description: Displacement of [3H]paroxetine from 5HTT

Chain of Sodium-dependent noradrenaline transporter (P23975 whole entry): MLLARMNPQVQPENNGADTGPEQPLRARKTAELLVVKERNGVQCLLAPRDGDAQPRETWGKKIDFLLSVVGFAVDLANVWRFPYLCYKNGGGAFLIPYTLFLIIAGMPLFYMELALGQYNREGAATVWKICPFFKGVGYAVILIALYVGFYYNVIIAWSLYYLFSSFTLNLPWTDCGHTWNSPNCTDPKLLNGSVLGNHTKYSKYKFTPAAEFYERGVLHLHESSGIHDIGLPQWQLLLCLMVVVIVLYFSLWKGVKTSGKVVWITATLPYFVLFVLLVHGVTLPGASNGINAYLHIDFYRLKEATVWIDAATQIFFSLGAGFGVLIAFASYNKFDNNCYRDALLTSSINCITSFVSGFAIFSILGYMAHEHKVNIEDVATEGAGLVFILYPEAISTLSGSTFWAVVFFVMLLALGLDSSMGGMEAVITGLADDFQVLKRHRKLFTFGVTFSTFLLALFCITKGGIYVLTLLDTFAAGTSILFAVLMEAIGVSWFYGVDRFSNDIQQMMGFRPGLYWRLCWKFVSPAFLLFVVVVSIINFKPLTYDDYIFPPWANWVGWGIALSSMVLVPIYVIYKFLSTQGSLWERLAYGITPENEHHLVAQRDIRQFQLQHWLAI
Chain of Sodium-dependent dopamine transporter (Q01959 whole entry): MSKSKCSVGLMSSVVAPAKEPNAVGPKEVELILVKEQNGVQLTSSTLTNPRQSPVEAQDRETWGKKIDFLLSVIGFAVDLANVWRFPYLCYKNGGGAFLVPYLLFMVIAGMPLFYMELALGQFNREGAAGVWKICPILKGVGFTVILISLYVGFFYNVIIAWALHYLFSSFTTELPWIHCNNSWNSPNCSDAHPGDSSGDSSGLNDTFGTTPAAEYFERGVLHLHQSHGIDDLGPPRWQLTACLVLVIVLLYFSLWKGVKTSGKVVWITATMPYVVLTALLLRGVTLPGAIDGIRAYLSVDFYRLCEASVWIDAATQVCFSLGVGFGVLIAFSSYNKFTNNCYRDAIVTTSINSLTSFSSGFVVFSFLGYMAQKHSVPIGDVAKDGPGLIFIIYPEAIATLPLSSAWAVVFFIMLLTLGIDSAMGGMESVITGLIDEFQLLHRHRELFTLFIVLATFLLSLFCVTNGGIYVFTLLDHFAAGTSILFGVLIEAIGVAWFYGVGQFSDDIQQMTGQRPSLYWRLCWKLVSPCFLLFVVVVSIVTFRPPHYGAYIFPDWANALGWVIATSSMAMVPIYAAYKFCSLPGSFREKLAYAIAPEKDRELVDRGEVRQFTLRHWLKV

| SMILES | ED50 (Rattus norvegicus [1]) [mg/kg] | Activity (Rattus norvegicus [2]) [%] | Activity (Rattus norvegicus [4]) [%] | Activity (Rattus norvegicus [5]) [%] | Activity (Rattus norvegicus [6]) [%] | Activity (Mus musculus [11]) | IC50 [13] [nM] | IC50 [14] [nM] | Ki [14] [nM] | ED50 (Mus musculus [15]) [mg/kg] | Activity (Mus musculus [16]) [%] | Activity (Mus musculus [17]) [%] | Activity (Mus musculus [18]) [%] | Activity (Mus musculus [19]) [%] | Activity (Mus musculus [20]) [%] | Activity (Mus musculus [21]) [%] | Activity (Mus musculus [22]) [%] | Activity (Mus musculus [23]) [%] | Activity (Mus musculus [24]) [%] | Activity (Mus musculus [25]) [%] | also measured |
| --- | --- | --- | --- | --- | --- | --- | --- | --- | --- | --- | --- | --- | --- | --- | --- | --- | --- | --- | --- | --- | --- |
| COC(=O)[C@@H]1C2CCC(C[C@H]1c1ccc(C)cc1)N2C (some centres not stated) | 7.73 | 0 | 29 | 43 | 43 | Active | 10.2 | 270 | 160 | 14.7 | 28 | 29 | -6 | -41 | 294 | 149 | 108 | 22 | 482 | 147 | Activity (Rattus norvegicus [3]): 14%; Activity (Rattus norvegicus [7]): 75%; Activity (Rattus norvegicus [8]): 100%; Activity (Mus musculus [9]): Active; Activity (Mus musculus [10]): Active; Activity (Mus musculus [12]): Active; Activity (Mus musculus [26]): 5%; Activity (Mus musculus [27]): -66%; Activity (Mus musculus [28]): 843%; Activity (Mus musculus [29]): 436%; Activity (Mus musculus [30]): 263%; Activity (Mus musculus [31]): 18% |
| COC(=O)[C@H]1[C@H]2CCC(C[C@H]1c1ccc(C)cc1)N2C |  | 13 | 0 | 13 | 0 |  | 23.4 | 3850 | 1930 |  | 6 | 132 | 47 | 56 | 8 | 96 | 120 | -36 | -57 | -36 | Activity (Mus musculus [32]): -15%; Activity (Mus musculus [33]): 110%; Activity (Mus musculus [34]): 118%; Activity (Mus musculus [35]): -51%; Activity (Mus musculus [36]): Active; Activity (Mus musculus [37]): Active; Activity (Mus musculus [38]): Active; Activity (Mus musculus [39]): Active; Activity (Mus musculus [26]): 78%; Activity (Mus musculus [27]): -35%; Activity (Mus musculus [40]): Active |
| COC(=O)[C@H]1[C@@H](c2ccc(F)cc2)C[C@H]2CC[C@H]1N2C | 0.29 | 100 |  |  |  | Active |  |  | 503 | 0.7 | 633 | 558 | 199 | 140 | 330 | 220 | 594 | 739 |  |  | Activity (Mus musculus [41]): 5%; Activity (Mus musculus [42]): -33%; Activity (Mus musculus [43]): -66%; Activity (Mus musculus [44]): -47%; Activity (Mus musculus [32]): 333%; Activity (Mus musculus [33]): 232%; Activity (Mus musculus [34]): 28%; Activity (Mus musculus [35]): -29%; Activity (Rattus norvegicus [45]): 0%; Activity (Rattus norvegicus [46]): 57%; Activity (Rattus norvegicus [47]): 86%; Activity (Mus musculus [48]): Active; Activity (Mus musculus [49]): Active; Activity (Mus musculus [50]): Active; Activity (Mus musculus [51]): Active; Activity (Mus musculus [52]): Active; Activity (Mus musculus [38]): Active; IC50 [53]: 692 nM; Ki [53]: 63 nM |
